{"source": "PubChem BioAssay AID182", "about": "(DTP/NCI, 2004)", "test_system": "BDF1 mice, P388/ADR leukemia ip, median survival T/C", "assay": "NCI In Vivo Anticancer Drug Screen. Data for tumor model P388 Leukemia resistant to Adriamycin; NSC 123127, Developed at Scr 06 and 41 (intraperitoneal) in B6D2F1 (BDF1) mice", "details": "endpoint: median survival time, higher = longer survival", "experimental": "The antitumor activity of compounds was measured in mice bearing transplantable tumors. Survival or tumor size were measured and the results are expressed as the measurement made in the treated group (T) divided by the measurement made in the vehicle treated control group (C). The tumor model used in this assay is P388 Leukemia resistant to Adriamycin; NSC 123127, Developed at Scr 06 and 41 (intraperitoneal) in B6D2F1 (BDF1) mice", "key": {"[1]": {"details": "dose: 10.8 mg/kg/injection, schedule: Q04DX003 (ip), vehicle: saline"}, "[2]": {"details": "dose: 18.0 mg/kg/injection, schedule: Q04DX003 (ip), vehicle: saline"}, "[3]": {"details": "dose: 30.0 mg/kg/injection, schedule: Q04DX003 (ip), vehicle: saline"}, "[4]": {"details": "dose: 6.48 mg/kg/injection, schedule: Q04DX003 (ip), vehicle: saline"}}, "note": "“And” between values parts separate entries of the source, which are not always exact repeats. Equal entries are not always repeated. Toxic doses and inconclusive results are not listed.", "data": [{"smiles": "CCC1=C(C[C@H]2NCCc3cc(OC)c(OC)cc32)C[C@H]2c3cc(OC)c(OC)cc3CCN2C1", "values": [{"measurement": "T/C", "setting": "[1]", "result": "108 % of control"}, {"measurement": "T/C", "setting": "[2]", "result": "96 % of control"}, {"measurement": "T/C", "setting": "[3]", "result": "107 % of control"}]}, {"smiles": "COC(=O)[C@@]12OC[C@]34[C@H]([C@@H](O)[C@@H]1O)[C@@]1(C)CC(=O)C(O)=C(C)[C@@H]1C[C@H]3OC(=O)[C@H](OC(=O)/C=C(\\C)C(C)C)[C@@H]24", "values": [{"measurement": "T/C", "setting": "dose: 0.65 mg/kg/injection, schedule: Q04DX003 (ip), vehicle: saline + alcohol", "result": "113 % of control"}, {"measurement": "T/C", "setting": "dose: 1.08 mg/kg/injection, schedule: Q04DX003 (ip), vehicle: saline + alcohol", "result": "93 % of control and 97 % of control"}, {"measurement": "T/C", "setting": "dose: 1.8 mg/kg/injection, schedule: Q04DX003 (ip), vehicle: saline + alcohol", "result": "86 % of control and 90 % of control"}]}, {"smiles": "COc1cccc2c1C(=O)c1c(O)c3c(c(O)c1C2=O)CC(O)(C(=O)CO)CC3OC1CC(N)C(O)C(C)O1", "note": "(stereo unspecified)", "values": [{"measurement": "T/C", "setting": "dose: 1.73 mg/kg/injection, schedule: Q01DX004 (ip), vehicle: water", "result": "103 % of control"}, {"measurement": "T/C", "setting": "[4]", "result": "107 % of control"}, {"measurement": "T/C", "setting": "[1]", "result": "93 % of control"}, {"measurement": "T/C", "setting": "[2]", "result": "106 % of control"}, {"measurement": "T/C", "setting": "[3]", "result": "94 % of control"}]}, {"smiles": "N[C@H](C(=O)O)[C@@H]1CC(Cl)=NO1", "values": [{"measurement": "T/C", "setting": "dose: 36.0 mg/kg/injection, schedule: Q04DX003 (ip), vehicle: saline", "result": "122 % of control"}]}, {"smiles": "COc1cc2cc3c4cc(OC)c(OC)cc4cc[n+]3c(C)c2cc1OC", "note": "(tested in a mixture with another compound)", "values": [{"measurement": "T/C", "setting": "dose: 86.4 mg/kg/injection, schedule: Q04DX003 (ip), vehicle: other", "result": "103 % of control"}, {"measurement": "T/C", "setting": "dose: 144.0 mg/kg/injection, schedule: Q04DX003 (ip), vehicle: other", "result": "95 % of control"}]}, {"smiles": "CC[C@H]1CN2CCc3cc(OC)c(OC)cc3[C@@H]2C[C@@H]1C[C@@H]1c2cc(OC)c(OC)cc2CCN1CCN(CCCl)CCCl", "values": [{"measurement": "T/C", "setting": "dose: 4.3 mg/kg/injection, schedule: Q04DX003 (ip), vehicle: saline with Tween-80", "result": "119 % of control"}, {"measurement": "T/C", "setting": "dose: 7.2 mg/kg/injection, schedule: Q04DX003 (ip), vehicle: saline with Tween-80", "result": "119 % of control"}]}, {"smiles": "COC1=C(N)C(=O)c2nc(-c3nc(C(=O)O)c(C)c(-c4ccc(OC)c(OC)c4O)c3N)ccc2C1=O", "values": [{"measurement": "T/C", "setting": "dose: 144.0 micrograms/kg/injection, schedule: Q04DX003 (ip), vehicle: alkali diluted with saline", "result": "120 % of control"}, {"measurement": "T/C", "setting": "dose: 240.0 micrograms/kg/injection, schedule: Q04DX003 (ip), vehicle: alkali diluted with saline", "result": "120 % of control"}, {"measurement": "T/C", "setting": "dose: 400.0 micrograms/kg/injection, schedule: Q04DX003 (ip), vehicle: alkali diluted with saline", "result": "122 % of control"}, {"measurement": "T/C", "setting": "dose: 667.0 micrograms/kg/injection, schedule: Q04DX003 (ip), vehicle: alkali diluted with saline", "result": "121 % of control"}]}, {"smiles": "S=c1nc[nH]c2nc[nH]c12", "values": [{"measurement": "T/C", "setting": "dose: 43.2 mg/kg/injection, schedule: Q01DX009 (ip), vehicle: alkali diluted with saline", "result": "100 % of control"}, {"measurement": "T/C", "setting": "dose: 72.0 mg/kg/injection, schedule: Q01DX009 (ip), vehicle: alkali diluted with saline", "result": "105 % of control"}]}, {"smiles": "O=C[C@@H](CO)O[C@H](C=O)n1cnc2c(=O)[nH]cnc21", "values": [{"measurement": "T/C", "setting": "dose: 180.0 mg/kg/injection, schedule: Q04DX003 (ip), vehicle: water", "result": "162 % of control"}, {"measurement": "T/C", "setting": "dose: 300.0 mg/kg/injection, schedule: Q04DX003 (ip), vehicle: water", "result": "203 % of control"}]}, {"smiles": "Nc1ncn(C2OC(CO)C(O)C2O)c(=O)n1", "note": "(stereo unspecified)", "values": [{"measurement": "T/C", "setting": "[4]", "result": "210 % of control"}, {"measurement": "T/C", "setting": "[1]", "result": "191 % of control"}, {"measurement": "T/C", "setting": "[2]", "result": "184 % of control"}, {"measurement": "T/C", "setting": "[3]", "result": "87 % of control"}]}, {"smiles": "NC(C/[N+]([O-])=N/O)C(=O)O", "note": "(stereo unspecified)", "values": [{"measurement": "T/C", "setting": "dose: 288.0 mg/kg/injection, schedule: Q04DX003 (ip), vehicle: sodium bicarbonate", "result": "159 % of control"}, {"measurement": "T/C", "setting": "dose: 480.0 mg/kg/injection, schedule: Q04DX003 (ip), vehicle: sodium bicarbonate", "result": "154 % of control"}]}, {"smiles": "CC[C@](O)(C(=O)O)c1cc2n(c(=O)c1CO)Cc1cc3ccccc3nc1-2", "values": [{"measurement": "T/C", "setting": "[2]", "result": "183 % of control"}, {"measurement": "T/C", "setting": "[3]", "result": "209 % of control"}, {"measurement": "T/C", "setting": "dose: 50.0 mg/kg/injection, schedule: Q04DX003 (ip), vehicle: saline", "result": "206 % of control"}]}, {"smiles": "COc1cccc2c1C(=O)c1c(O)c3c(c(O)c1C2=O)C[C@@](O)(/C(C)=N/NC(=O)c1ccccc1)C[C@@H]3OC1CC(N)C(O)C(C)O1", "note": "(stereo partly specified)", "values": [{"measurement": "T/C", "setting": "dose: 6.5 mg/kg/injection, schedule: Q04DX003 (ip), vehicle: water", "result": "107 % of control"}, {"measurement": "T/C", "setting": "dose: 10.8 mg/kg/injection, schedule: Q04DX003 (ip), vehicle: water", "result": "115 % of control"}, {"measurement": "T/C", "setting": "dose: 18.0 mg/kg/injection, schedule: Q04DX003 (ip), vehicle: water", "result": "105 % of control"}]}]}
